Measurements from patent publication USRE39616E1, “Aminoindan derivatives” (priority 1996, dated 2007).
Counter-ions that a name gives are not always drawn. Like-named read-outs stand apart in the source and are kept apart here.

Assays:
[1] = tested on: mice
Method: Therapeutic Ratio was calculated as LD50 divided by ED50 of ex vivo acetylcholine esterase inhibition.

[2] = target: T1, MAO-B (Mus musculus, UniProt Q8BW75); test: Inhibition of MAO activity ex vivo (brain); type: in vivo, mice
T1 construct: from tissue; host or cells: mouse brain
T1 sequence (Q8BW75 1-520): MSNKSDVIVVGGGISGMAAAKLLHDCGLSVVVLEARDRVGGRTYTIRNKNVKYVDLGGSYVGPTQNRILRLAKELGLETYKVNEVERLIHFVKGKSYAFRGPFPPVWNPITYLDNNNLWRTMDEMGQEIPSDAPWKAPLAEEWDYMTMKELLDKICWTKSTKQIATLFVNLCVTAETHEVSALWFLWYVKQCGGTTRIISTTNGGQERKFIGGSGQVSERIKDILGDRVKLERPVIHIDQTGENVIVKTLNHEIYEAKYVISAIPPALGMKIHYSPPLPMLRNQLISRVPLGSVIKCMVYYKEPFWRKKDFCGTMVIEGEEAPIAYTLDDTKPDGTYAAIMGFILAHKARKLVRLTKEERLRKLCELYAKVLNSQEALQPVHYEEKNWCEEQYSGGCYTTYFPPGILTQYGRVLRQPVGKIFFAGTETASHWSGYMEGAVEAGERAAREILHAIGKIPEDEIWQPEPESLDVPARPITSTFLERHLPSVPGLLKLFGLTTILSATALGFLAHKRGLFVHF
In short: (§1)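 Male Sabra mice dosed with compound in 0.9% saline (2-3 per dose) and killed 2 h post-dose or at peak AChE-inhibition time. Brain homogenized in 0.3 M sucrose and assayed for MAO activity with 50 μM PEA (MAO-B) or 1 mM 5-HT (MAO-A) as substrate.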

[3] = target: T2, MAO-A (Mus musculus, UniProt Q64133); test: Inhibition of MAO activity ex vivo (brain); type: in vivo, mice
T2 construct: from tissue; host or cells: mouse brain
T2 sequence (Q64133 1-526): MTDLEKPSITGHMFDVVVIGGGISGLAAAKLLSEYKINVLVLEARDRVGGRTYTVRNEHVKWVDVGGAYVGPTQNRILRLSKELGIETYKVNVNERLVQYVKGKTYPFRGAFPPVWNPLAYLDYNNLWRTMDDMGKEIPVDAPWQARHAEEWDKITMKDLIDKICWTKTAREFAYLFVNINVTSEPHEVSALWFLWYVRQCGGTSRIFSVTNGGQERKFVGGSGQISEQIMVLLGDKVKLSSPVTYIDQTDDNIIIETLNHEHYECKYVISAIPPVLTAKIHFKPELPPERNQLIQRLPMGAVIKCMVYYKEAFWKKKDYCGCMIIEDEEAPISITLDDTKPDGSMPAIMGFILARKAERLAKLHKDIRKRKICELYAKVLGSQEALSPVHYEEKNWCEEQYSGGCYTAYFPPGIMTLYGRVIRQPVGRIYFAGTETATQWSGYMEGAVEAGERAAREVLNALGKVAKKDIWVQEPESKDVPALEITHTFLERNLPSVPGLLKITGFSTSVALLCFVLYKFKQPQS
In short: as §1

[4] = tested on: mice, hypobaric hypoxic model; test: animal or person; type: in vivo; details: Mus musculus; for response vs control in vivo at 8 mg/kg: read-out: Protection (survival time), 8 mg/kg sc, 60 min before hypoxia
From the text: A 12 liter desiccator (desiccator A) and a 2.5 liter desiccator (desiccator B) were separately connected to a vacuum pump. Desiccator B was disconnected and allowed to equilibrate with room air whilst desiccator A was evacuated to a pressure of 100 mmHg. Four male ICR albino mice (22-28 g) were placed in desiccator B. Desiccator B was then closed to room air and connected to desiccator A. The pressure inside desiccator B was monitored using a mercury manometer and at the point were the pressure in desiccator B reached 200 mmpg (usually within 14 seconds), the two desiccators were disconnected from the vacuum pump and the pump switched off. The survival time from the moment of induction of hypoxia to the time of cessation of respiration was recorded for each mouse for a maximum of 15 minutes after which time room air was reintroduced to desiccator B. Survivors were monitored for signs of lethargy or vitality.
Effect of drug treatment was assessed as the percent of the survival time of the drug treated group with respect to the saline injected or vehicle injected control group. […] The effect of each dose of test drug was determined in duplicate i.e. two groups of 4 mice.
Positive reference drugs were sodium pentobarbital at a dose of 40 mg/kg, and diazepam 10 mg/kg given 0.5 h prior to hypoxia, physostigmine 0.2 and 0.4 mg/kg and neostigmine 0.2 mg/kg given sc 30 min before hypoxia. Methyl atropine 1 mg/kg was given sc. 10 min. before physostigmine.
Test drugs were dissolved in 0.9% saline, and injected sc. in the nip of the neck at a dose in accordance with body weight, 60-90 min. before hypoxia. The volume of injection was 0.2-0.3 mL per mouse (10 mL/kg). The initial dose was about one third of the reported LD50 for acetylcholine esterase inhibition. If no protection could be obtained, the dose was further increased to the nearest non-toxic dose. In case of protection, the dose was further reduced in an attempt to locate the “protective” dose range.

[5] = target: T3, MAO-A (Rattus norvegicus, UniProt P21396); test: Inhibition of MAO activity in vitro, 5-HT as substrate; type: biochemical; parameters: The MAO enzyme source was a homogenate of rat brain in 0.3M sucrose; from tissue; host or cells: rat brain homogenate, 600 g supernatant
T3 sequence (P21396 1-526): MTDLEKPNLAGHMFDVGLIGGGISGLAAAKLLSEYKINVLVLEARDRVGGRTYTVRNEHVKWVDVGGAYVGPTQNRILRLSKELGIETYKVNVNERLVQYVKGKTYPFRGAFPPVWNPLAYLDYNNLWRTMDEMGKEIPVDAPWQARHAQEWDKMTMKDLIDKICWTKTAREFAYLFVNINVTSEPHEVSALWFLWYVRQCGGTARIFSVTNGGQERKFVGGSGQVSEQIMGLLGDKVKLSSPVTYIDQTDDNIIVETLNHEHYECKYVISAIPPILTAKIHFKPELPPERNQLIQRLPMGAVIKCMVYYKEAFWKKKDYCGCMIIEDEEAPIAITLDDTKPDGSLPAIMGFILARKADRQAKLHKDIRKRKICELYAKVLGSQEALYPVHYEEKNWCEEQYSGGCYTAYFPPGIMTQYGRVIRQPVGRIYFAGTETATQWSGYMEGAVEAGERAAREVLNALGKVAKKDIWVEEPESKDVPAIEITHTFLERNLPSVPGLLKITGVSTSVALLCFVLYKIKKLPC
Method: Substrate concentrations used were 50 μM (PEA) and 1 mM (5-HT).

[6] = MAO-A Inhibition In vitro IC50, rat brain homogenate, 5-HT substrate
[7] = mice, within 6 hours after administration
[8] = sc, read-out: Protection (survival time), 50 mg/kg sc, 60 min before hypoxia

SMILES | Acute Toxicity LD50 (LD) ([1]; mouse, in vivo) [µmol/kg] | Therapeutic Ratio LD/AC ([1]; mouse, in vivo) | MAO-B Inhibition Ex vivo ED50 ([2]; mice, brain tissue) | MAO-A Inhibition Ex vivo ED50 ([3]; mice, brain tissue) | IC50 [5, 6] [µM] | Acute Toxicity LD50 (LD) [1, 7] [µmol/kg] | response vs control in vivo at 8 mg/kg ([4]; sc) [%] | response vs control in vivo at 50 mg/kg [4, 8] [%] | further results
C#CCN(C)C1CCc2ccc(OC(=O)N(C)C)cc21 (centres unmarked) [Compound 29] | 500 | 9.3 | 30 µmol/kg | 50 µmol/kg | 40 |  |  |  | response vs control in vivo at 25 mg/kg ([4]; sc, read-out: Protection (survival time), 25 mg/kg sc, 30 min before hypoxia): 273 ± 183%; response vs control in vivo at 25 mg/kg ([4]; sc, read-out: Protection (survival time), 25 mg/kg sc, 60 min before hypoxia): 131 ± 56%; response vs control in vivo at 53 mg/kg ([4]; sc, read-out: Protection (survival time), 53 mg/kg sc, 60 min before hypoxia): 638 ± 10%; response vs control in vivo at 77 mg/kg ([4]; sc, read-out: Protection (survival time), 77 mg/kg sc, 60 min before hypoxia): 508 ± 206%
CN(C)C(=O)Oc1ccc2c(c1)C(N)CC2 (centres unmarked) [Compound 1] |  |  | >>80 μmoles/kg | >>80 μmoles/kg | 75 | 83.8 | 637 ± 116 |  | response vs control in vivo at 2 mg/kg ([4]; sc, read-out: Protection (survival time), 2 mg/kg sc, 60 min before hypoxia): 120 ± 51%; response vs control in vivo at 4 mg/kg ([4]; sc, read-out: Protection (survival time), 4 mg/kg sc, 60 min before hypoxia): 470 ± 200%
C#CCNC1CCc2ccc(OC(=O)N(C)C)cc21 (centres unmarked) [Compound 24, 6-(N,N-Dimethylcarbamyloxy)-N-propargyl aminoindan mesylate] | 179 |  | 100 µmol/kg | >120 µmol/kg | 850 |  |  | 738 | response vs control in vivo at 21 mg/kg ([4]; sc, read-out: Protection (survival time), 21 mg/kg sc, 60 min before hypoxia): 269 ± 166%
C#CCNC1CCc2cccc(OC(=O)N(C)C)c21 (centres unmarked) [Compound 27] | 300 | 10 | >>160 μmoles/kg | >>160 μmoles/kg | > 1000 |  | 119 ± 45 | 455 ± 23 | response vs control in vivo at 3 mg/kg ([4]; sc, read-out: Protection (survival time), 3 mg/kg sc, 60 min before hypoxia): 287 ± 319%; response vs control in vivo at 15 mg/kg ([4]; sc, read-out: Protection (survival time), 15 mg/kg sc, 60 min before hypoxia): 143 ± 56%
CCN(C)C(=O)Oc1ccc2c(c1)C(NC)CC2 (centres unmarked) [Compound 10] |  |  | >175 µmol/kg | >175 µmol/kg |  | 740 |  |  | response vs control in vivo at 10 mg/kg ([4]; sc, read-out: Protection (survival time), 10 mg/kg sc, 90 min before hypoxia): 304 ± 129%; response vs control in vivo at 25 mg/kg ([4]; sc, read-out: Protection (survival time), 25 mg/kg sc, 90 min before hypoxia): 700 ± 201%; response vs control in vivo at 50 mg/kg ([4]; sc, read-out: Protection (survival time), 50 mg/kg sc, 90 min before hypoxia): 705 ± 101%; IC50 ([5]; rat brain homogenate, 5-HT substrate, read-out: MAO-A Inhibition In vitro IC50): 22 µM
C#CCNC1CCc2ccc(OC(=O)N(C)CC)cc21 (centres unmarked) [Compound 25, 6-(N-Me, N-Etcarbamyloxy) N-propargyl aminoindan, HCl] |  | 10.8 |  |  |  | 1400 |  |  | MAO-B Inhibition Ex vivo ED50 ([2]; mouse, in vivo): 200 µmol/kg; MAO-A Inhibition Ex vivo ED50 ([3]; mouse, in vivo): >>350 μmoles/kg; response vs control in vivo at 25 mg/kg ([4]; 25 mg/kg sc, 60 min before hypoxia, read-out: Protection (survival time)): 84 ± 35%; response vs control in vivo at 50 mg/kg ([4]; 50 mg/kg sc, 60 min before hypoxia, read-out: Protection (survival time)): 380 ± 231%; response vs control in vivo at 75 mg/kg ([4]; 75 mg/kg sc, 60 min before hypoxia, read-out: Protection (survival time)): 559 ± 225%; response vs control in vivo at 100 mg/kg ([4]; 100 mg/kg sc, 60 min before hypoxia, read-out: Protection (survival time)): 761 ± 91%; IC50 ([5]; MAO-A Inhibition In vitro IC50): 270 µM
